PMC9993459, “A novel selective spleen tyrosine kinase inhibitor SKI-O-703 (cevidoplenib) ameliorates lupus nephritis and serum-induced arthritis in murine models” (Clinical and Experimental Immunology, 2022)

What was measured:
FGFR1 = FGFR1 (Homo sapiens, UniProt P11362); test: Kinase assay (LANCE Ultra TR-FRET), FGFR1; type: biochemical
Experimental: Kinase assays were conducted in 384-well plates using LANCE ultra 66 time-resolved fluorescence resonance energy transfer (TR-FRET) methods, according to the manufacturer’s instructions (Perkin-Elmer). In brief, each kinase was pre-incubated with a serially diluted compound for 30 min, incubated with ULight poly-GT peptide substrate and ATP for up to 1 h. Thirty minutes after adding Eu-labeled anti-phosphopeptides Ab diluted in LANCE Detection Buffer, LANCE signals were measured with an EnVision multilabel reader (Perkin-Elmer).

human primary B cells = test: IgM, IgG and IL-6 secretion by stimulated human primary B cells (ELISA); type: cell-based; conditions: TLR9 agonist plus IL-2 or IFN-α; efficacy comparable to R406
Experimental: Human CD19^+ B cells (Lonza) were pre-treated with inhibitors for 1 h and stimulated for 24 h with 50 nM CpG ODN 2006 plus 10 ng/ml IL-2 or 1 μM CpG ODN 2006 plus 20 ng/ml IFN-α. Culture supernatants were assayed by ELISA to detect secreted IgG, IgM, and IL-6, according to the manufacturer’s instructions.
Figure 2: in vitro effects of SKI-O -703 on the proliferation, survival, and differentiation of B cells. Mouse primary B cells were labeled with CP670, and stimulated with either anti-IgM mAb, CD40L and IL-4 (A) or LPS (B) for 72 h in the presence or absence of SKI-O-703 and tofacitinib at the indicated concentrations; they were then assayed by FACS. (C and D) Mouse primary B cells were cultured as in A and B for 24 h, stained with Annexin V and 7-AAD, and assayed by FACS. Representative FACS profiles and graphs displaying mean Annexin V-positivity are shown. (E) Human primary B cells were stimulated with CpG ODN plus IL-2 (to detect IgM and IgG) or CpG ODN 2006 plus IFN-α (to detect IL-6) in the presence or absence of inhibitors. The culture supernatants were assayed by ELISA. Graphs are expressed as % positivity relative to the controls (without inhibitor). The data are representative of 2–3 independent experiments. *P < 0.05, **P < 0.01, and ***P < 0.001, compared with vehicle control by two-tailed unpaired Students t-tests.

Aqueous solubility = type: physicochemical; conditions: aqueous solution
NZB/W F1 mice = test: NZB/W mouse model of SLE / lupus nephritis, oral dosing; type: in vivo
Experimental: NZB/W female mice aged 18 weeks were assigned to four groups by distributing mice by body weight and anti-dsDNA IgG titer equivalently across the groups. Each group of mice was administered orally with 42 mg per kg body weight (mpk) of SKI-O-703 dissolved in 50 mM citric acid, 84 mpk of SKI-O-703, 30 mpk of tofacitinib (Selleckchem) dissolved in 0.5% carboxymethyl cellulose (Sigma Aldrich) containing 0.025% Tween 20, or a mixture of the two vehicles. The drugs were given once daily up to 34 weeks of age. Body weight was measured every 2 weeks and serum was collected every 4 weeks. At the termination of the experiments (34 weeks of age), serum, urine, spleen, BM, and kidneys were removed post mortem and assayed by histopathological and biochemical methods as below. Levels of blood urea nitrogen (BUN) and creatinine were measured by Knotus (Incheon, Korea).
Kidneys removed from the NZB/W mice were fixed in 4% paraformaldehyde, embedded in paraffin, sectioned at 3 μm thickness, and stained with periodic acid-Schiff (PAS) and hematoxylin (Sigma Aldrich). […] Glomerular size was measured using Image J software. To assess the glomerular size and hypercellularity of each mouse, more than 20 glomeruli per mouse were individually examined and averaged.
Kidneys and spleens of NZB/W mice were embedded in OCT compound (Sakura Finetek, Torrance, CA, USA) and snap-frozen in liquid nitrogen. Frozen sections were fixed in acetone and blocked with 10% normal donkey serum (Sigma Aldrich). Kidney sections were stained with a 1:200 dilution of anti-IgG-biotin (Sigma Aldrich), anti-IgM-biotin (Southern Biotech) and anti-C3-biotin (Bioss), followed by reaction with 1:200-dilution of streptavidin-cy3 (Invitrogen). Spleen sections were stained with anti-GL7-FITC, anti-CD4-APC, and anti-IgD-PE (all from BD Biosciences or eBioscience). Fluorescence images were acquired using a TCS SP5 confocal microscope (Leica). The area of GCs composed with GL7^+ cells per image was calculated using ImageJ software (NIH, Bethesda, MD, USA).
Titers of anti-dsDNA IgG Ab were measured by ELISA, as described previously. In brief, sera were diluted 1/10 000 to 1/50 000 in PBS and applied to immunosorbent plates (Nunc) precoated with 5 μg/ml poly-L-lysine and 5 μg/ml thymic DNA (Sigma Aldrich). The serum containing the highest titer of anti-dsDNA IgG was serially diluted and used as standard. The plates were incubated with anti-mouse IgG-biotin (Sigma Aldrich) and streptavidin-HRP (BD Biosciences). The concentration of albumin in urine was measured by quantitative ELISA using a mouse albumin ELISA kit (Bethyl), according to the manufacturer’s instructions. The concentration of serum B-cell activating factor of the TNF family (BAFF) was quantitated using a BAFF/BLys/TNFSF13B ELISA Kit (R&D Systems).
Single-cell suspensions of spleen and LN cells were prepared as previously described. Joint tissues from hind paws of KSTA mice were dissected free of soft tissue and bones, digested with 100 μg/ml Liberase (Roche) for 45 min at 37 °C, and filtered through a 70-μm-pore cell strainer (SPL Life Sciences) to prepare single cell suspensions of synovial infiltrates. The single cell suspensions were stained with an appropriate combination of mAbs and analyzed by FACS. The mAbs used were: CD138-PE, B220-PerCP or -APC-cy7, FAS-PE, CD19-PerCP or -APC, CD21-FITC or -APC, CD43-APC, CD23-PE-cy7, CD8a-PE, CD25-APC-cy7, CXCR5-biotin, GL7-FITC, CD45.2-FITC, CD27-FITC, Ki-67-FITC, Gr-1-FITC, CD4-FITC or -APC-cy7, phospho-Syk-PE, CD11b-PE or -PerCP, PD-1-APC, CD44-APC-cy7, and F4/80-PerCP mAbs (all from BD Biosciences, eBioscience or Biolegend). Streptavidin-PerCP was purchased from BD Biosciences.
Splenic CD19^+ B cells from NZB/W mice were sorted by MACS, and lysed with Trizol reagent (Invitrogen) followed by standard methods of total RNA purification. The RNA was assayed by RT and quantitative PCR as described. […]

[1] = 84 mpk oral once daily, 18-34 weeks of age
[2] = high dose (84 mpk), 34 weeks, FACS

Sequence of FGFR1 (P11362 22-822, species assumed): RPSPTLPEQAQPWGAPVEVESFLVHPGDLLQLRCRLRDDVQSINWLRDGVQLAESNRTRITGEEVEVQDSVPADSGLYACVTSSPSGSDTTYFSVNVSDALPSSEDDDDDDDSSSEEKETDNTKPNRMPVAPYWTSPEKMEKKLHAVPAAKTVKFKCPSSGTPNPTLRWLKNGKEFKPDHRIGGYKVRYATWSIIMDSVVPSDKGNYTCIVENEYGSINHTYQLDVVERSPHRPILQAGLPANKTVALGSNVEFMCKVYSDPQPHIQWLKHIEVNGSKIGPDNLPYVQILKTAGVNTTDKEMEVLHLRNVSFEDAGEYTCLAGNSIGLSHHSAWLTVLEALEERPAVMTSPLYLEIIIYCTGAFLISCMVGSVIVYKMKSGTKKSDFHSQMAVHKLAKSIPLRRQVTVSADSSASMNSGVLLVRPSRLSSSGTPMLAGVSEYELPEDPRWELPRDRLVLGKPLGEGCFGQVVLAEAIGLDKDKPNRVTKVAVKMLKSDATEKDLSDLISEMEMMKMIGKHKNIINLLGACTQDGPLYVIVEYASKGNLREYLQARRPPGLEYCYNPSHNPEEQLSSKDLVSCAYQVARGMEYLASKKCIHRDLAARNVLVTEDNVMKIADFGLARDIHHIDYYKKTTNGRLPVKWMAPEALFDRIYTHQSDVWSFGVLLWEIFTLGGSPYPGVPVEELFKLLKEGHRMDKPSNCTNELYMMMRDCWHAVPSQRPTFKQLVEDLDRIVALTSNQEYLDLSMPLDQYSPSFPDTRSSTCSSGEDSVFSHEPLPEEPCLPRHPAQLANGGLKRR

| SMILES | Ratio to Syk (FGFR1) (FGFR1; IC50 ratio to Syk) | IC50 (FGFR1; kinase activity, TR-FRET) | Production of IgM, IgG and IL-6 (human primary B cells) | Solubility (Aqueous solubility) | Concentrations of BUN and creatinine (NZB/W F1 mice; 42 mpk (low-dose), 34 weeks of age) | Rise of serum anti-dsDNA IgG Ab level (NZB/W F1 mice; 42 mpk oral once daily) | Glomerular IgM and C3 staining intensities (NZB/W F1 mice; 84 mpk (high dose)) | Concentrations of BUN and creatinine (NZB/W F1 mice; 84 mpk (high-dose), 34 weeks of age) | Body weights (NZB/W F1 mice; [1]) | Spleen weights (NZB/W F1 mice; [1]) | Rise of serum anti-dsDNA IgG Ab level (NZB/W F1 mice; 84 mpk oral once daily, P < 0.01 by two-way ANOVA) | Concentration of urinary albumin (NZB/W F1 mice; 84 mpk, 34 weeks of age, vehicle mean 742.9 mg/dl) | Number of splenic T cells (NZB/W F1 mice; [2]) | Total spleen cells (NZB/W F1 mice; [2]) | CXCR5+PD-1+ Tfh cells (NZB/W F1 mice; high dose (84 mpk), spleen) | Splenic follicular, GC B cells and plasma cells (NZB/W F1 mice; high dose (84 mpk), vs vehicle controls) | Level of serum BAFF (NZB/W F1 mice; high dose, ELISA) | BAFF receptor expression in splenic B cells (NZB/W F1 mice; high dose, quantitative RT-PCR) | BM hematopoiesis (NZB/W F1 mice; long-term treatment (16 weeks)) |
| --- | --- | --- | --- | --- | --- | --- | --- | --- | --- | --- | --- | --- | --- | --- | --- | --- | --- | --- | --- |
| Cc1nn(-c2ccnc(Nc3ccc4c(c3)c(C(=O)C3CC3)cn4C)n2)cc1CN1C[C@H](O)CO1 [SKI-O-592] | 2753 | 17 µM | inhibited the production of IgM, IgG, and IL-6 | – | – | – | – | – | – | – | – | – | – | – | – | – | – | – | – |
| CS(=O)(=O)O.CS(=O)(=O)O.Cc1nn(-c2ccnc(Nc3ccc4c(c3)c(C(=O)C3CC3)cn4C)n2)cc1CN1C[C@H](O)CO1 [SKI-O-703, (S)-cyclopropyl(5-((4-(4-((4-hydroxyisoxazolidin-2-yl)methyl)-3-methyl-1H-pyrazol-1-yl)pyrimidin-2-yl)amino)-1-methyl-1H-indol-3-yl)methanone dimesylate] | – | – | – | soluble in aqueous solution | significantly lowered | did not have the same effect, and even temporarily elevated the Ab titer | significantly reduced | significantly lowered | without significantly affecting body weights | significantly reduced spleen weights | dramatically attenuated | markedly reduced | not significantly altered | significantly less numerous | reduced in number | significantly less numerous | also reduced | reduced level | appeared not to interfere with BM hematopoiesis |
